This is an account of results in US10774083B2, “Heterocyclic amide compound” (TAKEDA PHARMACEUTICAL COMPANY LIMITED, priority 2016, dated 2020).

The target in assay [1] is T1, human PRS protein (His-Avi-hEPRS (998-1512)) (Homo sapiens, UniProt P07814).
T1 construct: to construct His-Avi-hEPRS (998-1512) expression plasmid; His tag (N); Avi tag (N); TEV cleavage site (ENLYFQG, then S; inferred from the forward primer hEPRS-TEV-NheF) (N); made in house; host or cells: E. coli BL21(DE3)
T1 sequence (P07814 998-1512 limits assumed): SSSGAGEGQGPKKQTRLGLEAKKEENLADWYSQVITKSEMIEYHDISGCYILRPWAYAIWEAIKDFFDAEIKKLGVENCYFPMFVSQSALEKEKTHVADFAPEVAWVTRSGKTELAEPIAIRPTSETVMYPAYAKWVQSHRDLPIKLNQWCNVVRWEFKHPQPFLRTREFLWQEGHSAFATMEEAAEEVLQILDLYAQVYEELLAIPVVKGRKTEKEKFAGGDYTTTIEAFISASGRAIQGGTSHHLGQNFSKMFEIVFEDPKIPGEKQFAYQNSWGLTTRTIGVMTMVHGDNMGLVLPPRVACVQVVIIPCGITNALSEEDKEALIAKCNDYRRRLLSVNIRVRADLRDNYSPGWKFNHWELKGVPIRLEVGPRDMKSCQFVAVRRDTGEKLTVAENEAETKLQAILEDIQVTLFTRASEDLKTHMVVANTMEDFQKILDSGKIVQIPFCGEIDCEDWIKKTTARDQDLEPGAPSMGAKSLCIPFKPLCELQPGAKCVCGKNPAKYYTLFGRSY
Nature of the assay: PRS inhibitory activity ([32P]pyrophosphate exchange enzyme assay). The format is biochemical. The settings on record: 300 nM test compound; read-out: inhibitory rate (%) of PRS. In a few lines:
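Compound was pre-incubated 60 min with 40 nM His-Avi-hEPRS (998-1512) (stock, E. coli-expressed) in Tris pH 7.5/KCl/DTT/Tween/MgCl2. Reaction began with substrate mix containing 300 μM ATP, 160 μM L-proline, 400 μM [32P]pyrophosphate (stock levels) and ran 30 min at room temperature. Charcoal-bound radioactivity was counted; inhibition was relative to no-reaction control.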

For assay [2], the system named is human ovarian cancer cells A2780. Nature of the assay: proliferation inhibitory activity against human ovarian cancer cell A2780 (CellTiter-Glo). The class given is cell-based. The settings on record: A2780, 72 h, 1 μM test compound, 3 days of culture, read-out: proliferation inhibitory rate (%) of A2780 cells. The protocol: The proliferation inhibitory activity of the compound of the present invention against human ovarian cancer cell A2780 was evaluated by the following method.
Human ovarian cancer cells A2780 were seeded in a 384 well culture plate at 1000 cells in 30 μL of medium per well by using RPMI-1640 medium (Wako Pure Chemical Industries, Ltd.) containing 10% fetal bovine serum and penicillin/streptomycin. The next day, 10 μL of RPMI-1640 medium containing the test compound was added to the cells. After 3 days of culture, 20 μL of CellTiter-Glo Luminescent Cell Viability Assay solution (Promega) was added. The luminescence signal was measured using EnVision (PerkinElmer) and the inhibitory rate (%) of the test compound was calculated with a well free of seeding of cell as 100% inhibition.
(In general: Cellular ATP, detected with luciferase, serves as a proxy for viable cell number.)

The structures appear in SMILES notation.

For the molecule `Cn1cc2c(CNC(=O)c3ncnc4nc(C5CCCC5)[nH]c34)cccc2n1` [Example 10, 8-cyclopentyl-N-((2-methyl-2H-indazol-4-yl)methyl)-7H-purine-6-carboxamide], the inhibition at 0.3 µM in assay [1] was found to be 97%. In addition, the inhibition at 1 µM in assay [2] was 55%.
In the same order, the values of `Cn1cc(-c2cc(F)cc(CNC(=O)c3nccc4nc(CC5CC5)[nH]c34)c2)cn1` [Example 126, 2-(cyclopropylmethyl)-N-(3-fluoro-5-(1-methyl-1H-pyrazol-4-yl)benzyl)-3H-imidazo[4,5-c]pyridine-4-carboxamide] are 98% and 56%.
Consider `Cn1cc(-c2cc(F)cc(CNC(=O)c3ncnc4nc(C5CCCC5)n(C)c34)c2)ccc1=O` [Example 4, 8-cyclopentyl-N-(3-fluoro-5-(1-methyl-6-oxo-1,6-dihydropyridin-3-yl)benzyl)-7-methyl-7H-purine-6-carboxamide], for which, in assay [1], the inhibition at 0.3 µM turned out to be 101%. The inhibition at 1 µM in assay [2] worked out at 99%.
With `Cn1cc(-c2cc(F)cc(CNC(=O)c3nccc4nc(C5CCCC5)n(C)c34)c2)cn1` [Example 88, 2-cyclopentyl-N-(3-fluoro-5-(1-methyl-1H-pyrazol-4-yl)benzyl)-3-methyl-3H-imidazo[4,5-c]pyridine-4-carboxamide], the inhibition at 0.3 µM in assay [1] stood at 101%. Moreover, the inhibition at 1 µM in assay [2] is 99%.
`Cn1cc(-c2cc(F)cc(CNC(=O)c3ncnc4nc(C5CCOC5)[nH]c34)c2)cn1` (stereo not shown) [Example 24, N-(3-fluoro-5-(1-methyl-1H-pyrazol-4-yl)benzyl)-8-(tetrahydrofuran-3-yl)-7H-purine-6-carboxamide]: the inhibition at 0.3 µM in assay [1] turned out to be 96%. Also, in assay [2], the inhibition at 1 µM came out at 57%.
With `Cn1cc(-c2cc(F)cc(CNC(=O)c3nccc4nc(Cc5ccccc5)[nH]c34)c2)cn1` [Example 109, 2-benzyl-N-(3-fluoro-5-(1-methyl-1H-pyrazol-4-yl)benzyl)-3H-imidazo[4,5-c]pyridine-4-carboxamide], the inhibition at 0.3 µM in assay [1] turned out to be 100%. For the same molecule, in assay [2], the inhibition at 1 µM was determined as 84%.
Consider `Cn1cc(-c2cc(F)c(F)c(CNC(=O)c3ncnc4nc(C5CCCC5)n(C)c34)c2)cn1` [Example 5, 8-cyclopentyl-N-(2,3-difluoro-5-(1-methyl-1H-pyrazol-4-yl)benzyl)-7-methyl-7H-purine-6-carboxamide], for which, in assay [1], the inhibition at 0.3 µM amounted to 102%. In addition, the inhibition at 1 µM in assay [2] came out at 98%.
In the same order, the values of `Cn1cc(-c2cc(F)cc(CNC(=O)c3nccc4nc(CC5CCCC5)[nH]c34)c2)cn1` [Example 104, 2-(cyclopentylmethyl)-N-(3-fluoro-5-(1-methyl-1H-pyrazol-4-yl)benzyl)-3H-imidazo[4,5-c]pyridine-4-carboxamide] are 98% and 68%.
Turning to `Cn1cc(-c2cc(F)cc(CNC(=O)c3nccc4nc(C5CCCC5)n(CC(N)=O)c34)c2)cn1` [Example 128, 3-(2-amino-2-oxoethyl)-2-cyclopentyl-N-(3-fluoro-5-(1-methyl-1H-pyrazol-4-yl)benzyl)-3H-imidazo[4,5-c]pyridine-4-carboxamide], the inhibition at 0.3 µM in assay [1] came to 102%. In addition, the inhibition at 1 µM in assay [2] amounted to 97%.
For `Cn1cc(-c2cc(F)cc(CNC(=O)c3ncnc4nc(C5CCCC5)n(C)c34)c2)nn1` [Example 7, 8-cyclopentyl-N-(3-fluoro-5-(1-methyl-1H-1,2,3-triazol-4-yl)benzyl)-7-methyl-7H-purine-6-carboxamide], the inhibition at 0.3 µM in assay [1] stood at 102%. In addition, the inhibition at 1 µM in assay [2] was 95%.
For the molecule `Cc1cc(-c2cc(F)cc(CNC(=O)c3cc(N4CC[C@@](C#N)(C5CC5)C4=O)cc(C)n3)c2)ccn1` [Example 209, 4-((3S)-3-cyano-3-cyclopropyl-2-oxopyrrolidin-1-yl)-N-(3-fluoro-5-(2-methylpyridin-4-yl)benzyl)-6-methylpyridine-2-carboxamide], in assay [1], the inhibition at 0.3 µM is 100%. In assay [2], the inhibition at 1 µM was 80%.
As to `Cc1cc(N2CC[C@@](C#N)(C3CC3)C2=O)cc(C(=O)NCc2cc(Cl)cc(-c3cnn(C)c3)c2)n1` [Example 216, N-(3-chloro-5-(1-methyl-1H-pyrazol-4-yl)benzyl)-4-((3S)-3-cyano-3-cyclopropyl-2-oxopyrrolidin-1-yl)-6-methylpyridine-2-carboxamide], the inhibition at 0.3 µM in assay [1] was 101%. Moreover, the inhibition at 1 µM in assay [2] was 89%.
Turning to `Cn1cc(-c2cc(F)cc(CNC(=O)c3nccc4nc(C5CCCC5)n(CCO)c34)c2)cn1` [Example 115, 2-cyclopentyl-N-(3-fluoro-5-(1-methyl-1H-pyrazol-4-yl)benzyl)-3-(2-hydroxyethyl)-3H-imidazo[4,5-c]pyridine-4-carboxamide], the inhibition at 0.3 µM in assay [1] was found to be 101%. For the same molecule, in assay [2], the inhibition at 1 µM was 94%.
Take `Cn1cc(-c2cc(F)c(F)c(CNC(=O)c3nccc4nc(C5CCCC5)[nH]c34)c2)cn1` [Example 90, 2-cyclopentyl-N-(2,3-difluoro-5-(1-methyl-1H-pyrazol-4-yl)benzyl)-3H-imidazo[4,5-c]pyridine-4-carboxamide]: in assay [1], the inhibition at 0.3 µM was 101%. Further, in assay [2], the inhibition at 1 µM came to 96%.
As to `Cn1cc(-c2cccc(CNC(=O)c3nccc4nc(C5CCCC5)[nH]c34)c2)cn1` [Example 84, 2-cyclopentyl-N-(3-(1-methyl-1H-pyrazol-4-yl)benzyl)-3H-imidazo[4,5-c]pyridine-4-carboxamide], the inhibition at 0.3 µM in assay [1] amounted to 100%. Further, the inhibition at 1 µM in assay [2] stood at 97%.
Turning to `Cc1cn(-c2cc(F)cc(CNC(=O)c3ncnc4nc(C5CCCC5)n(C)c34)c2)nc1C` [Example 56, 8-cyclopentyl-N-(3-(3,4-dimethyl-1H-pyrazol-1-yl)-5-fluorobenzyl)-7-methyl-7H-purine-6-carboxamide], in assay [1], the inhibition at 0.3 µM was 102%. The inhibition at 1 µM in assay [2] came to 99%.
In the same order, the values of `CC(C)n1cc(-c2cc(F)cc(CNC(=O)c3ncnc4nc(C5CCCC5)[nH]c34)c2)cn1` [Example 11, 8-cyclopentyl-N-(3-fluoro-5-(1-isopropyl-1H-pyrazol-4-yl)benzyl)-7H-purine-6-carboxamide] are 102% and 95%.
Take `Cc1cc(N2CC[C@@](C#N)(C3CC3)C2=O)cc(C(=O)NCc2cc(C#N)cc(-c3cnn(C)c3)c2)n1` [Example 167, 4-((3S)-3-cyano-3-cyclopropyl-2-oxopyrrolidin-1-yl)-N-(3-cyano-5-(1-methyl-1H-pyrazol-4-yl)benzyl)-6-methylpyridine-2-carboxamide]: in assay [1], the inhibition at 0.3 µM is 99%. Further, in assay [2], the inhibition at 1 µM came out at 98%.
In the same order, the values of `Cn1cc(-c2cc(F)cc(CNC(=O)c3ncnc4nc(C5CCCC5)n(C)c34)c2)cn1` [Example 3, 8-cyclopentyl-N-(3-fluoro-5-(1-methyl-1H-pyrazol-4-yl)benzyl)-7-methyl-7H-purine-6-carboxamide] are 101% and 99%.
As to `Cn1ncc(-c2cc(F)cc(CNC(=O)c3ncnc4nc(C5CCCC5)[nH]c34)c2)n1` [Example 71, 8-cyclopentyl-N-(3-fluoro-5-(2-methyl-2H-1,2,3-triazol-4-yl)benzyl)-7H-purine-6-carboxamide], the inhibition at 0.3 µM in assay [1] worked out at 100%. Further, the inhibition at 1 µM in assay [2] was found to be 70%.
